{
  "source": "PubChem BioAssay AID588787",
  "about": "(The Scripps Research Institute Molecular Screening Center, 2011)",
  "test_in_all_cases": "off-target hydrolase inhibition by ABPP-MudPIT – biochemical, LC-MS/MS, mouse brain soluble proteome, selectivity assay for pPAFAH inhibitor project, late-stage follow-up (AID 588787)",
  "key": {"Abhd4": {"molecular_target": "Abhd4 (UniProt Q8VD66)", "sequence (Q8VD66 whole entry, looked up)": "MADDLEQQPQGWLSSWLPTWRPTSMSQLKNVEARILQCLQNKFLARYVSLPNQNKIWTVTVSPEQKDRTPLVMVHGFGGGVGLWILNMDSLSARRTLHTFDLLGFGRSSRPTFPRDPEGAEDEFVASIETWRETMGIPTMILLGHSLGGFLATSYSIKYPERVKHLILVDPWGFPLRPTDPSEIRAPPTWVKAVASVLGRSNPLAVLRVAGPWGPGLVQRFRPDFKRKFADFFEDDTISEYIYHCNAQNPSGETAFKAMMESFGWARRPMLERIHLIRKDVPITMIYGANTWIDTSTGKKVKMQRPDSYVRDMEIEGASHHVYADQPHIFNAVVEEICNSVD", "details": "ABPP-MudPIT FP-biotin spectral counts, at 1 µM, stronger effect = lower value"}, "[1]": {"molecular_target": "Palmitoyl-protein thioesterase ABHD10, mitochondrial (Mus musculus) (UniProt Q6PE15)", "sequence (Q6PE15 whole entry, looked up)": "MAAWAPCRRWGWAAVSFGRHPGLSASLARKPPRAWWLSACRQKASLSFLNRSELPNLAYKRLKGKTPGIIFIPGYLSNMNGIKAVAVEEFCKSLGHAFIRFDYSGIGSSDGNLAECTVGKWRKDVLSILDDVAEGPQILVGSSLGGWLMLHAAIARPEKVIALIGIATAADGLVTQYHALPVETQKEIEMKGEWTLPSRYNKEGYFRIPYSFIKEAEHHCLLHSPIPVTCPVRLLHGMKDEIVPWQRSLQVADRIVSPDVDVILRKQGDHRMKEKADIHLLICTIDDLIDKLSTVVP", "details": "ABPP-MudPIT FP-biotin spectral counts, at 1 µM, stronger effect = lower value"}, "Pafah1b2": {"test_system": "Pafah1b2", "details": "ABPP-MudPIT FP-biotin spectral counts, at 1 µM, stronger effect = lower value"}, "Lyplal1": {"test_system": "Lyplal1", "details": "ABPP-MudPIT FP-biotin spectral counts, at 1 µM, stronger effect = lower value"}, "Acot2": {"test_system": "Acot2", "details": "ABPP-MudPIT FP-biotin spectral counts, at 1 µM, stronger effect = lower value"}, "[2]": {"molecular_target": "Prolyl endopeptidase (Mus musculus) (UniProt Q9QUR6)", "sequence (Q9QUR6 whole entry, looked up)": "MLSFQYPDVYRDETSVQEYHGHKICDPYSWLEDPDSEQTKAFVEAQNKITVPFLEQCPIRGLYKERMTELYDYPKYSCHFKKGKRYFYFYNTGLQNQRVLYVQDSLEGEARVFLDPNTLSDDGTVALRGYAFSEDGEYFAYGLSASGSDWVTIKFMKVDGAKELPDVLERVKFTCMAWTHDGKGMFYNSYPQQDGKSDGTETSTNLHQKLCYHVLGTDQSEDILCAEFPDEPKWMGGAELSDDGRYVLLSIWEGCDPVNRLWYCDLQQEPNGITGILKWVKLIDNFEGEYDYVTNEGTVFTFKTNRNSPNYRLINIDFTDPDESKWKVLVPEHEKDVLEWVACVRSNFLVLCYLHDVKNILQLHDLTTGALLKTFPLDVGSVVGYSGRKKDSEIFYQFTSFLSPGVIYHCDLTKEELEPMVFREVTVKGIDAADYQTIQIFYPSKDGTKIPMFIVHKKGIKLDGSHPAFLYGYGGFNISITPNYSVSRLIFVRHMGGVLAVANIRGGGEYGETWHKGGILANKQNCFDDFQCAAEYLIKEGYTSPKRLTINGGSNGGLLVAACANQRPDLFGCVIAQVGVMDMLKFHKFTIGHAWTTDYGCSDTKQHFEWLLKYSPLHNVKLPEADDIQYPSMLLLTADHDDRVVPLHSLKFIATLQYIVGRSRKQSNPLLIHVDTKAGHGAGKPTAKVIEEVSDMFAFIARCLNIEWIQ", "details": "ABPP-MudPIT FP-biotin spectral counts, Prep, at 1 µM, stronger effect = lower value"}, "[3]": {"molecular_target": "Platelet-activating factor acetylhydrolase (Mus musculus) (UniProt Q60963)", "sequence (Q60963 whole entry, looked up)": "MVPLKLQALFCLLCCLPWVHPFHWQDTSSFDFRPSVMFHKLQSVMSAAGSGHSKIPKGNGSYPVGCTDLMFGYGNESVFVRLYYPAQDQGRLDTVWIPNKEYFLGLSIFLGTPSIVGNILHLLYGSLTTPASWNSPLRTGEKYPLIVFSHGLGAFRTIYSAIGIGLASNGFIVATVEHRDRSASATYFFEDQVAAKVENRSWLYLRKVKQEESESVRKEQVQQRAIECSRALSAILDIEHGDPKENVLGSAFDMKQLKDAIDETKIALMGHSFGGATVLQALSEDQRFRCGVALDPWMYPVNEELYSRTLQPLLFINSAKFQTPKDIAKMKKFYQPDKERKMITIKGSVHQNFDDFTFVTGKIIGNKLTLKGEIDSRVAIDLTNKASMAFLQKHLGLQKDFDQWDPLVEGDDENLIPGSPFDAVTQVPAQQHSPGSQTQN", "details": "ABPP-MudPIT FP-biotin spectral counts, Pla2g7 (pPAFAH), at 1 µM, stronger effect = lower value"}, "Pla2g15": {"test_system": "Pla2g15", "details": "ABPP-MudPIT FP-biotin spectral counts, at 1 µM, stronger effect = lower value"}, "Tpp2": {"test_system": "Tpp2", "details": "ABPP-MudPIT FP-biotin spectral counts, at 1 µM, stronger effect = lower value"}, "[4]": {"molecular_target": "Acyl-protein thioesterase 1 (Mus musculus) (UniProt P97823)", "sequence (P97823 whole entry, looked up)": "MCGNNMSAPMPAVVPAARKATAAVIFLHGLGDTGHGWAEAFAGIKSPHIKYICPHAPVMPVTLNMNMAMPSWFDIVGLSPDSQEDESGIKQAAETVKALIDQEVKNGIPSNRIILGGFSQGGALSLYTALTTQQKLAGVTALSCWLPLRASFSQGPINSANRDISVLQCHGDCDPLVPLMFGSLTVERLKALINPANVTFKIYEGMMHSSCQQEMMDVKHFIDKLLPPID", "details": "ABPP-MudPIT FP-biotin spectral counts, Lypla1, at 1 µM, stronger effect = lower value"}, "Lypla2": {"test_system": "Lypla2", "details": "ABPP-MudPIT FP-biotin spectral counts, at 1 µM, stronger effect = lower value"}, "Dpp9": {"test_system": "Dpp9", "details": "ABPP-MudPIT FP-biotin spectral counts, at 1 µM, stronger effect = lower value"}, "Fasn": {"test_system": "Fasn", "details": "ABPP-MudPIT FP-biotin spectral counts, at 1 µM, stronger effect = lower value"}, "Acot1": {"test_system": "Acot1", "details": "ABPP-MudPIT FP-biotin spectral counts, at 1 µM, stronger effect = lower value"}, "Apeh": {"test_system": "Apeh", "details": "ABPP-MudPIT FP-biotin spectral counts, at 1 µM, stronger effect = lower value"}, "Pme1": {"test_system": "Pme1", "details": "ABPP-MudPIT FP-biotin spectral counts, at 1 µM, stronger effect = lower value"}, "Pafah1b3": {"test_system": "Pafah1b3", "details": "ABPP-MudPIT FP-biotin spectral counts, at 1 µM, stronger effect = lower value"}, "Lipe": {"test_system": "Lipe", "details": "ABPP-MudPIT FP-biotin spectral counts, at 1 µM, stronger effect = lower value"}, "Esd": {"test_system": "Esd", "details": "ABPP-MudPIT FP-biotin spectral counts, at 1 µM, stronger effect = lower value"}, "Abhd11": {"test_system": "Abhd11", "details": "ABPP-MudPIT FP-biotin spectral counts, at 1 µM, stronger effect = lower value"}, "Rbbp9": {"test_system": "Rbbp9", "details": "ABPP-MudPIT FP-biotin spectral counts, at 1 µM, stronger effect = lower value"}, "Dpp8": {"test_system": "Dpp8", "details": "ABPP-MudPIT FP-biotin spectral counts, at 1 µM, stronger effect = lower value"}, "Acot7": {"test_system": "Acot7", "details": "ABPP-MudPIT FP-biotin spectral counts, at 1 µM, stronger effect = lower value"}, "Es1": {"test_system": "Es1", "details": "ABPP-MudPIT FP-biotin spectral counts, at 1 µM, stronger effect = lower value"}, "Magl": {"test_system": "Magl", "details": "ABPP-MudPIT FP-biotin spectral counts, at 1 µM, stronger effect = lower value"}, "Prepl": {"test_system": "Prepl", "details": "ABPP-MudPIT FP-biotin spectral counts, at 1 µM, stronger effect = lower value"}},
  "note": "Activity calls are given as the source filed them.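 Rule for the calls: active = pPAFAH enzyme ratio at or below 0.5 while fewer than two other serine hydrolases drop that low; inactive = the rest.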",
  "data": [
    {"smiles": "Cc1cc(N2CCN(C(=O)Oc3ccc(-c4ccccc4)cn3)CC2)c2ccccc2n1", "values": [
      {"measurement": "ratio of spectral counts to DMSO", "setting": "Abhd4", "value": "0.8 (inactive)"},
      {"measurement": "ratio of spectral counts to DMSO", "setting": "[1]", "value": "1.1 (inactive)"},
      {"measurement": "ratio of spectral counts to DMSO", "setting": "Pafah1b2", "value": "1.4 (inactive)"},
      {"measurement": "ratio of spectral counts to DMSO", "setting": "Lyplal1", "value": "1.1 (inactive)"},
      {"measurement": "ratio of spectral counts to DMSO", "setting": "Acot2", "value": "1.1 (inactive)"},
      {"measurement": "ratio of spectral counts to DMSO", "setting": "[2]", "value": "1.2 (inactive)"},
      {"measurement": "ratio of spectral counts to DMSO", "setting": "[3]", "value": 0},
      {"measurement": "ratio of spectral counts to DMSO", "setting": "Pla2g15", "value": "1.1 (inactive)"},
      {"measurement": "ratio of spectral counts to DMSO", "setting": "Tpp2", "value": "0.8 (inactive)"},
      {"measurement": "ratio of spectral counts to DMSO", "setting": "[4]", "value": "1.1 (inactive)"},
      {"measurement": "ratio of spectral counts to DMSO", "setting": "Lypla2", "value": "1.3 (inactive)"},
      {"measurement": "ratio of spectral counts to DMSO", "setting": "Dpp9", "value": "1.3 (inactive)"},
      {"measurement": "ratio of spectral counts to DMSO", "setting": "Fasn", "value": "1.1 (inactive)"},
      {"measurement": "ratio of spectral counts to DMSO", "setting": "Acot1", "value": "1.1 (inactive)"},
      {"measurement": "ratio of spectral counts to DMSO", "setting": "Apeh", "value": "1.1 (inactive)"},
      {"measurement": "ratio of spectral counts to DMSO", "setting": "Pme1", "value": "1.1 (inactive)"},
      {"measurement": "ratio of spectral counts to DMSO", "setting": "Pafah1b3", "value": "1.2 (inactive)"},
      {"measurement": "ratio of spectral counts to DMSO", "setting": "Lipe", "value": "0.9 (inactive)"},
      {"measurement": "ratio of spectral counts to DMSO", "setting": "Esd", "value": "1.1 (inactive)"},
      {"measurement": "ratio of spectral counts to DMSO", "setting": "Abhd11", "value": "1.2 (inactive)"},
      {"measurement": "ratio of spectral counts to DMSO", "setting": "Rbbp9", "value": "1.1 (inactive)"},
      {"measurement": "ratio of spectral counts to DMSO", "setting": "Dpp8", "value": "1.1 (inactive)"},
      {"measurement": "ratio of spectral counts to DMSO", "setting": "Acot7", "value": "0.8 (inactive)"},
      {"measurement": "ratio of spectral counts to DMSO", "setting": "Es1", "value": 0},
      {"measurement": "ratio of spectral counts to DMSO", "setting": "Magl", "value": "0.8 (inactive)"},
      {"measurement": "ratio of spectral counts to DMSO", "setting": "Prepl", "value": "1.1 (inactive)"}
    ]}
  ]
}
